In US11589588B2, “Methods of identification and use of nematicide compounds” (UNIVERSITY OF NEW HAMPSHIRE, priority 2013, dated 2023):

Legend:
Type in all cases: in vivo
C. elegans [1] = assay: Motility of dauer state C. elegans exposed to PDE inhibitors; details: among several PDE inhibitors tested
Procedure: (§1) The dauer state is morphologically similar to the infective states in juvenile phytoparasitic nematodes.
For this study, worms were contacted with drugs and scored for motility at various time points after the drug treatment to determine how quick the motility defect occurred. Nematodes were scored at 0, 1, 2, 4, 8, and 24 hours after addition of the treatment. Concentrations were 4.9 μM cilostazol, 2.5 μM Rolipram, and 6.6 μM papaverine. […] The time is shown in hours after contact was initiated and the effect was determined by assessing the fraction of contacted works that were motile, relative to control worm motility (i.e., worms not contacted with the tested drug). Cilostazol, rolipram and papaverine were tested. […] The time is shown in hours after contact and the effect was determined by assessing the fraction of contacted works that were motile, relative to control worm motility (controls were worms not contacted with tested drug).

C. elegans [2] = assay: Recovery of motility after contact with PDE inhibitor ceased; details: 24 hours exposure, evaluated 24 hours after inhibitor removed
Procedure: Motility is shown relative to the control condition (i.e., motility of worms not contacted with the test drug). The black bars represent the fraction of motile worms after 24 hours of exposure to the PDE inhibitor. The grey bars represent the fraction of motile worms 24 hours after the exposure to the inhibitor ceased. The experiment was repeated three times and the data points represent the mean plus and minus the standard deviation.
as §1
For the study, nematodes were exposed for 24 hours with the PDE inhibitor (at the concentration indicated in FIG. 15) and then plated out and evaluated for normal motility as described elsewhere in the Examples. […] Motility is shown relative to control motility in worms not contacted with the test drug.

C. elegans [3] = assay: Egg hatching / fecundity of C. elegans continuously exposed to PDE inhibitors; details: continuous exposure at concentrations maximally reducing motility; juveniles counted on Day 5; FIG. 6; experiment performed once
Procedure: The number of newly hatched juveniles on Day 5 was counted and normalized to the reproductive success of the control condition (no inhibitor). This experiment was performed once.
To assess disruption of activities such as developmental progression leading to egg hatching in nematodes, C. elegans eggs are exposed to PDE inhibitors. The nematode eggs are exposed to a range of concentrations of family-specific PDE inhibitors, and inhibitors that prevent egg hatching are identified.
The number of hatched larvae in the treated group was compared to a control (untreated) group and the results are evaluated as a function of time up to 3 days after exposure to the PDE inhibitor.
The ability of these various PDE inhibitors to reduce the fecundity of C. elegans was also examined.

Compound | effectiveness in reducing motility (C. elegans [1]) | reversibility of drug effects on motility (C. elegans [2]) | effect on egg hatching (number of newly hatched juveniles relative to control) (C. elegans [3])
Cc1[nH]c(=O)c(C#N)cc1-c1ccncc1 [milrinone] | most effective in reducing motility | reversed after 24 hours | –
O=C1CCc2cc(OCCCCc3nnnn3C3CCCCC3)ccc2N1 [cilostazol] | most effective in reducing motility | reversed after 24 hours | most effective in preventing egg hatching
Cn1cc(-c2ccncc2)c(-c2ccc(OCc3ccc4ccccc4n3)cc2)n1 [MP10] | most effective in reducing motility | reversed after 24 hours | –
CC(C)Cn1c(=O)n(C)c(=O)c2[nH]cnc21 [IBMX, 3-isobutyl-1-methylxanthine] | – | – | most effective in preventing egg hatching
OCCN(CCO)c1nc(N2CCCCC2)c2nc(N(CCO)CCO)nc(N3CCCCC3)c2n1 [dipyridamole] | – | – | enhanced egg hatching
COc1ccc(Cc2nccc3cc(OC)c(OC)cc23)cc1OC [papaverine] | most effective in reducing motility | reversed after 24 hours | –
CCOC(=O)C1=C[C@]2(CC)CCCN3CCc4c(n1c1ccccc41)[C@@H]32 [vinpocetine] | – | – | most effective in preventing egg hatching
COc1ccc(C2CNC(=O)C2)cc1OC1CCCC1 (centres unmarked) [rolipram] | most effective in reducing motility | reversed after 24 hours | –
